Test results: US20040156869A1, “2-substituted quinazolin-4-ylamine analogues” (Neurogen Corporation, priority 2002, published 2004)

Biological target: human capsaicin receptor (VR1) (Homo sapiens, UniProt Q8NER1)
Test: Capsaicin receptor binding assay ([3H]RTX competition, VR1-transfected HEK293 membranes)

human capsaicin receptor (VR1), sequence (Q8NER1 whole entry): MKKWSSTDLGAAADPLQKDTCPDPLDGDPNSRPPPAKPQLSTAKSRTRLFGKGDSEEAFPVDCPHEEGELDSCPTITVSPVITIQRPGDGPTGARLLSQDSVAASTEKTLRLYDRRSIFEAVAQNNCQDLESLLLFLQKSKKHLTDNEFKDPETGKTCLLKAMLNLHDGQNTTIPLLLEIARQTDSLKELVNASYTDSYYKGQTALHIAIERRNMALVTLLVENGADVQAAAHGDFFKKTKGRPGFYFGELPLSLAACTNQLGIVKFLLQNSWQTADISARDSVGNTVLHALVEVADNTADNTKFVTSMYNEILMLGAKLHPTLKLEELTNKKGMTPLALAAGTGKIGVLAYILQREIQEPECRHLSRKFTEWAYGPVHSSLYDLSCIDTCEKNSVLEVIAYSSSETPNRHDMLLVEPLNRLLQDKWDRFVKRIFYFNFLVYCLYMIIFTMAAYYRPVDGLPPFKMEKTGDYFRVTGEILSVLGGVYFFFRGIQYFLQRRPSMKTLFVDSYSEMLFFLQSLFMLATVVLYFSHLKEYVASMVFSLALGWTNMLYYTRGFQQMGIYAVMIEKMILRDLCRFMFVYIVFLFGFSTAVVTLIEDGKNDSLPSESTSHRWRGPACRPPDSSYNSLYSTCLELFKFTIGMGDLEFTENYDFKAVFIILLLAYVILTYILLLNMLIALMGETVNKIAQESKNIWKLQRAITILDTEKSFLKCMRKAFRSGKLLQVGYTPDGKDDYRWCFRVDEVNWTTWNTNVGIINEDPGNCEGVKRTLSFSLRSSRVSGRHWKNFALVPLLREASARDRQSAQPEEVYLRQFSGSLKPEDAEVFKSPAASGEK

Ki [µM]	Compound
< 1	C[C@@H]1CN(Cc2nc(Nc3ccc(C(F)(F)F)nc3)c3ccc(-c4ncccc4Cl)cc3n2)C[C@H](C)O1 [Compound 599, [7-(3-Chloro-pyridin-2-yl)-2-(2,6-dimethyl-morpholin-4-ylmethyl)-quinazolin-4-yl]-(6-trifluoromethyl-pyridin-3-yl)-amine (cis)]
< 1	C[C@@H]1CN(Cc2nc(Nc3ccc(S(=O)(=O)C(F)(F)F)cc3)c3ccc(-c4ncccc4Cl)cc3n2)C[C@H](C)O1 [Compound 602, [7-(3-Chloro-pyridin-2-yl)-2-(2,6-dimethyl-morpholin-4-ylmethyl)-quinazolin-4-yl]-(4-trifluoromethanesulfonyl-phenyl)-amine (cis)]
< 1	Cc1cccnc1-c1cnc2c(Nc3ccc(C(F)(F)F)cc3)nc(CN3C[C@@H](C)O[C@@H](C)C3)nc2c1 [Compound 603, [2-(2,6-Dimethyl-morpholin-4-ylmethyl)-7-(3-methyl-pyridin-2-yl)-pyrido[3,2-d]pyrimidin-4-yl]-(4-trifluoromethyl-phenyl)-amine (cis)]
< 1	C[C@H]1CN(Cc2nc(Nc3ccc(C(F)(F)F)cc3)c3ccc(-c4ncccc4Cl)cc3n2)C[C@H](C)O1 [Compound 604, (S,S)-[7-(3-Chloro-pyridin-2-yl)-2-(2,6-dimethyl-morpholin-4-ylmethyl)-quinazolin-4-yl]-(4-trifluoromethyl-phenyl)-amine]
< 1	C[C@H]1CN(Cc2nc(Nc3ccc(C(C)(C)C)nc3)c3ccc(-c4ncccc4Cl)cc3n2)C[C@H](C)O1 [Compound 605, (S,S)-(6-tert-Butyl-pyridin-3-yl)-[7-(3-chloro-pyridin-2-yl)-2-(2,6-dimethyl-morpholin-4-ylmethyl)-quinazolin-4-yl]-amine]
< 1	C[C@@H]1CN(Cc2nc(Nc3ccc(C(F)(F)F)cc3)c3ccc(-c4ncccc4Cl)cc3n2)C[C@@H](C)O1 [Compound 606, (R,R)-[7-(3-Chloro-pyridin-2-yl)-2-(2,6-dimethyl-morpholin-4-ylmethyl)-quinazolin-4-yl]-(4-trifluoromethyl-phenyl)-amine]
< 1	C[C@@H]1CN(Cc2nc(Nc3ccc(C(C)(C)C)nc3)c3ccc(-c4ncccc4Cl)cc3n2)C[C@@H](C)O1 [Compound 607, (R,R)-(6-tert-Butyl-pyridin-3-yl)-[7-(3-chloro-pyridin-2-yl)-2-(2,6-dimethyl-morpholin-4-ylmethyl)-quinazolin-4-yl]-amine]
< 1	C[C@H]1CN(Cc2nc(Nc3ccc(C(F)(F)F)nc3)c3ccc(-c4ncccc4Cl)cc3n2)C[C@H](C)O1 [Compound 608, (S,S)-[7-(3-Chloro-pyridin-2-yl)-2-(2,6-dimethyl-morpholin-4-ylmethyl)-quinazolin-4-yl]-(6-trifluoromethyl-pyridin-3-yl)-amine]
< 1	C[C@H]1CN(Cc2nc(Nc3ccc(C(C)(C)C)nc3)c3ccc(-c4ncccc4C(F)(F)F)cc3n2)C[C@H](C)O1 [Compound 609, (S,S)-(6-tert-Butyl-pyridin-3-yl)-[2-(2,6-dimethyl-morpholin-4-ylmethyl)-7-(3-trifluoromethyl-pyridin-2-yl)-quinazolin-4-yl]-amine]
< 1	C[C@@H]1CN(Cc2nc(Nc3ccc(C(F)(F)F)nc3)c3ccc(-c4ncccc4Cl)cc3n2)C[C@@H](C)O1 [Compound 610, (R,R)-[7-(3-Chloro-pyridin-2-yl)-2-(2,6-dimethyl-morpholin-4-ylmethyl)-quinazolin-4-yl]-(6-trifluoromethyl-pyridin-3-yl)-amine]
< 1	C[C@@H]1CN(Cc2nc(Nc3ccc(C(C)(C)C)nc3)c3ccc(-c4ncccc4C(F)(F)F)cc3n2)C[C@@H](C)O1 [Compound 611, (R,R)-(6-tert-Butyl-pyridin-3-yl)-[2-(2,6-dimethyl-morpholin-4-ylmethyl)-7-(3-trifluoromethyl-pyridin-2-yl)-quinazolin-4-yl]-amine]
< 1	C[C@@H]1CN(Cc2nc(Nc3ccc(C(F)(F)F)cc3)c3cnc(-c4ccccc4C(F)(F)F)cc3n2)C[C@H](C)O1 [Compound 612, [2-(2,6-Dimethyl-morpholin-4-ylmethyl)-7-(2-trifluoromethyl-phenyl)-pyrido[4,3-d]pyrimidin-4-yl]-(4-trifluoromethyl-phenyl)-amine (cis)]
< 1	CC(C)c1ccc(Nc2nc(CN3C[C@@H](C)O[C@@H](C)C3)nc3cc(-c4ncccc4C(F)(F)F)cnc23)cc1 [Compound 613, [2-(2,6-Dimethyl-morpholin-4-ylmethyl)-7-(3-trifluoromethyl-pyridin-2-yl)-pyrido[3,2-d]pyrimidin-4-yl]-(4-isopropyl-phenyl)-amine (cis)]
< 1	C[C@@H]1CN(Cc2nc(Nc3ccc(C(C)(C)C)cc3)c3cnc(-c4ccccc4C(F)(F)F)cc3n2)C[C@H](C)O1 [Compound 614, (4-tert-Butyl-phenyl)-[2-(2,6-dimethyl-morpholin-4-ylmethyl)-7-(2-trifluoromethyl-phenyl)-pyrido[4,3-d]pyrimidin-4-yl]-amine (cis)]
< 1	C[C@@H]1CN(Cc2nc(Nc3ccc(C(F)(F)F)cc3)c3ncc(-c4ncccc4Cl)cc3n2)C[C@H](C)O1 [Compound 615, [7-(3-Chloro-pyridin-2-yl)-2-(2,6-dimethyl-morpholin-4-ylmethyl)-pyrido[3,2-d]pyrimidin-4-yl]-(4-trifluoromethyl-phenyl)-amine (cis)]
< 1	C[C@@H]1CN(Cc2nc(Nc3ccc(C(F)(F)F)nc3)c3ncc(-c4ncccc4Cl)cc3n2)C[C@H](C)O1 [Compound 616, [7-(3-Chloro-pyridin-2-yl)-2-(2,6-dimethyl-morpholin-4-ylmethyl)-pyrido[3,2-d]pyrimidin-4-yl]-(6-trifluoromethyl-pyridin-3-yl)-amine (cis)]
< 1	C[C@@H]1CN(Cc2nc(Nc3ccc(S(=O)(=O)C(F)(F)F)cc3)c3ncc(-c4ncccc4Cl)cc3n2)C[C@H](C)O1 [Compound 617, [7-(3-Chloro-pyridin-2-yl)-2-(2,6-dimethyl-morpholin-4-ylmethyl)-pyrido[3,2-d]pyrimidin-4-yl]-(4-trifluoromethanesulfonyl-phenyl)-amine (cis)]
< 1	Cc1cccnc1-c1ccc2c(Nc3ccc(C(F)(F)F)cc3)nc(CN3C[C@@H](C)O[C@@H](C)C3)nc2c1 [Compound 618, [2-(2,6-Dimethyl-morpholin-4-ylmethyl)-7-(3-methyl-pyridin-2-yl)-quinazolin-4-yl]-(4-trifluoromethyl-phenyl)-amine (cis)]
< 1	C[C@@H]1CN(Cc2nc(Nc3ccc(C(F)(F)F)cc3)c3ccc(-c4ccccn4)cc3n2)C[C@H](C)O1 [Compound 619, [2-(2,6-Dimethyl-morpholin-4-ylmethyl)-7-pyridin-2-yl-quinazolin-4-yl]-(4-trifluoromethyl-phenyl)-amine (cis)]
< 1	C[C@@H]1CN(Cc2nc(Nc3ccc(C(F)(F)F)cc3)c3ccc(-c4ccccc4C(F)(F)F)cc3n2)C[C@H](C)O1 [Compound 620, [2-(2,6-Dimethyl-morpholin-4-ylmethyl)-7-(2-trifluoromethyl-phenyl)-quinazolin-4-yl]-(4-trifluoromethyl-phenyl)-amine (cis)]
< 1	C[C@@H]1CN(Cc2nc(Nc3ccc(C(C)(C)C)cc3)c3ccc(-c4ncccc4Cl)cc3n2)C[C@@H](C)O1 [Compound 621, (R,R)-(4-tert-Butyl-phenyl)-[7-(3-chloro-pyridin-2-yl)-2-(2,6-dimethyl-morpholin-4-ylmethyl)-quinazolin-4-yl]-amine]
< 1	C[C@@H]1CN(Cc2nc(Nc3ccc(F)cc3)c3ccc(-c4ncccc4Cl)cc3n2)C[C@@H](C)O1 [Compound 622, (R,R)-(4-Fluoro-phenyl)-[7-(3-chloro-pyridin-2-yl)-2-(2,6-dimethyl-morpholin-4-ylmethyl)-quinazolin-4-yl]-amine]
< 1	CC(=O)c1ccc(Nc2nc(CN3C[C@@H](C)O[C@H](C)C3)nc3cc(-c4ncccc4Cl)ccc23)cc1 [Compound 623, (R,R)-1-{4-[7-(3-Chloro-pyridin-2-yl)-2-(2,6-dimethyl-morpholin-4-ylmethyl)-quinazolin-4-ylamino]-phenyl}-ethanone]
< 1	C[C@@H]1CN(Cc2nc(Nc3ccc(Cl)cc3)c3ccc(-c4ncccc4Cl)cc3n2)C[C@@H](C)O1 [Compound 624, (R,R)-(4-Chloro-phenyl)-[7-(3-chloro-pyridin-2-yl)-2-(2,6-dimethyl-morpholin-4-ylmethyl)-quinazolin-4-yl]-amine]
< 1	CC(C)c1ccc(Nc2nc(CN3C[C@@H](C)O[C@H](C)C3)nc3cc(-c4ncccc4Cl)ccc23)cc1 [Compound 625, (R,R)-(4-Isopropyl-phenyl)-[7-(3-chloro-pyridin-2-yl)-2-(2,6-dimethyl-morpholin-4-ylmethyl)-quinazolin-4-yl]-amine]
< 1	CCc1ccc(Nc2nc(CN3C[C@@H](C)O[C@H](C)C3)nc3cc(-c4ncccc4Cl)ccc23)cc1 [Compound 626, (R,R)-(4-Ethyl-phenyl)-[7-(3-chloro-pyridin-2-yl)-2-(2,6-dimethyl-morpholin-4-ylmethyl)-quinazolin-4-yl]-amine]
< 1	CCN1CCN(Cc2nc(Nc3ccc(C(F)(F)F)cc3)c3ccc(-c4ncccc4C(F)(F)F)cc3n2)CC1 [Compound 628, [2-(4-Ethyl-piperazin-1-ylmethyl)-7-(3-trifluoromethyl-pyridin-2-yl)-quinazolin-4-yl]-(4-trifluoromethyl-phenyl)-amine]
< 1	CC(C)Oc1ccc(Nc2nc(CN3C[C@@H](C)O[C@H](C)C3)nc3cc(-c4ncccc4Cl)ccc23)cn1 [Compound 629, (R,R)-[7-(3-Chloro-pyridin-2-yl)-2-(2,6-dimethyl-morpholin-4-ylmethyl)-quinazolin-4-yl]-(6-isopropoxy-pyridin-3-yl)-amine]
< 1	C[C@@H]1CN(Cc2nc(Nc3ccc(C#N)cc3)c3ccc(-c4ncccc4Cl)cc3n2)C[C@@H](C)O1 [Compound 630, (R,R)-4-[7-(3-Chloro-pyridin-2-yl)-2-(2,6-dimethyl-morpholin-4-ylmethyl)-quinazolin-4-ylamino]-benzonitrile]
